target: STING protein (Homo sapiens (Human), UniProt Q86WV6, H232R); experiment: Cell based reporter assay of IRF activation (IRF-luciferase), THP1-dual-KI R232; conditions: read-out: THP1-dual-KI R232_IRF(Luciferase)_Activity Maximum measured (%)
Sequence (Q86WV6 whole entry H232R): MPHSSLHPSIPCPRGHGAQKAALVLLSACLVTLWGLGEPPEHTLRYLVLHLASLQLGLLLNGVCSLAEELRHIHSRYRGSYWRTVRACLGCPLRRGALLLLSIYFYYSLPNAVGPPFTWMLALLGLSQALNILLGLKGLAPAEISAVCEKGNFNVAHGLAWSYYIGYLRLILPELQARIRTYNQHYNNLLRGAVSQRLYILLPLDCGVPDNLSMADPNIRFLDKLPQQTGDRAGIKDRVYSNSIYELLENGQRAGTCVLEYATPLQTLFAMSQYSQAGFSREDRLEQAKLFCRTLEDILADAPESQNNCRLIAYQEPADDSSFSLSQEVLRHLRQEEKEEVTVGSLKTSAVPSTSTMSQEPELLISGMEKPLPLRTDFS

| SMILES | Emax [%] |
| --- | --- |
| COc1ccc2c(=O)c3ccccc3n(CC(=O)O)c2c1OC [Compound 265] | < 5 |
| CCS(=O)(=O)NC(=O)Cn1c2cc(C)ccc2c(=O)c2ccc(Cl)c(OC)c21 [Compound 349] | > 50 |
| COc1c(Cl)ccc2c(=O)c3ccc(C4CCCNC4)cc3n(CC(=O)O)c12 (centres unmarked) [Compound 227] | < 5 |
| O=C(O)Cn1c2cc(C3CCC(O)CC3)ccc2c(=O)c2ccc(Cl)c(Cl)c21 (centres unmarked) [Compound 264] | 5 to 25 |
| CCCOc1c(Cl)ccc2c(=O)c3ccccc3n(CC(=O)O)c12 [Compound 284] | 5 to 25 |

More lines, now with the values ahead:

| Emax [%] | SMILES |
| --- | --- |
| > 50 | CC(C)c1ccc2c(=O)c3ccc(Cl)c(Cl)c3n(CC(=O)NS(C)(=O)=O)c2c1 [Compound 352] |
| > 50 | CCOc1c(Cl)ccc2c(=O)c3ccc(C)cc3n(CC(=O)O)c12 [Compound 282] |
| 25 to 50 | O=C(O)Cn1c2cc(-c3ccco3)ccc2c(=O)c2ccc(Cl)c(Cl)c21 [Compound 186] |
| > 50 | COc1c(Cl)ccc2c(=O)c3ccc(-c4ccncc4)cc3n(CC(=O)O)c12 [Compound 278] |
| < 5 | Cc1ccc2c(=O)c3ccc(Cl)c(Cl)c3n(CC(=O)O)c2c1C [Compound 134] |
| > 50 | COc1c(Cl)ccc2c(=O)c3ccc(C)cc3n(CC(=O)NS(=O)(=O)C3CC3)c12 [Compound 348] |
| > 50 | C[C@@H]1CCCN1c1ccc2c(=O)c3ccc(Cl)c(Br)c3n(CC(=O)O)c2c1 [Compound 203] |
| > 50 | COc1c(Cl)ccc2c(=O)c3ccc(C)cc3n(CC(=O)NS(C)(=O)=O)c12 [Compound 347] |

target: hSTING-WT (Homo sapiens (Human), UniProt Q86WV6, H232R); experiment: Radiometric filtration binding competition assay, hSTING-WT; conditions: not given
Sequence (Q86WV6 140-379 H232R): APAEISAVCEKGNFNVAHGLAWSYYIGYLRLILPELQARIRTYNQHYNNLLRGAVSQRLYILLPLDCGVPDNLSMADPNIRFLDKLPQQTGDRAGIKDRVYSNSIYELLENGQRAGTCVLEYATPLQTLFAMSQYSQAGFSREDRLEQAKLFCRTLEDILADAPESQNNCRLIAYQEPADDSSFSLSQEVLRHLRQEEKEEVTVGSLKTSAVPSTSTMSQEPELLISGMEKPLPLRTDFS

| SMILES | IC50 [µM] |
| --- | --- |
| COc1c(Cl)ccc2c(=O)c3cc(F)c(C(C)C)cc3n(CC(=O)O)c12 [Compound 248] | > 300 |
| Cn1ccnc1-c1ccc2c(=O)c3ccc(Cl)c(Cl)c3n(CC(=O)O)c2c1 [Compound 188] | > 300 |
| C[C@H](C(=O)O)n1c2ccccc2c(=O)c2ccc(Cl)c(Cl)c21 [Compound 101] | > 300 |
| Cn1ccc(-c2ccc3c(=O)c4ccc(Cl)c(Cl)c4n(CC(=O)O)c3c2)n1 [Compound 184] | > 300 |
| COc1ccc2c(=O)c3ccccc3n(CC(=O)O)c2c1OC [Compound 265] | > 300 |
| CCS(=O)(=O)NC(=O)Cn1c2cc(C)ccc2c(=O)c2ccc(Cl)c(OC)c21 [Compound 349] | > 300 |
| C[C@@H](C(=O)O)n1c2ccccc2c(=O)c2ccc(Cl)c(Cl)c21 [Compound 100] | > 300 |
| COc1c(Cl)ccc2c(=O)c3ccc(C4CCCNC4)cc3n(CC(=O)O)c12 (centres unmarked) [Compound 227] | > 300 |
| COc1c(Cl)ccc2c(=O)c3ccc(S(C)(=O)=O)cc3n(CC(=O)O)c12 [Compound 249] | > 300 |
| O=C(O)Cn1c2cc(C(F)F)ccc2c(=O)c2ccc(Cl)c(Cl)c21 [Compound 166] | > 300 |
| CCCOc1c(Cl)ccc2c(=O)c3ccccc3n(CC(=O)O)c12 [Compound 284] | > 300 |
| O=C(O)Cn1c2cc(-c3cccnc3)ccc2c(=O)c2ccc(Cl)c(Cl)c21 [Compound 190] | > 300 |
| CC(C)(O)c1ccc2c(=O)c3ccc(Cl)c(Cl)c3n(CC(=O)O)c2c1 [Compound 168] | 100 to 300 |
| O=C(O)Cn1c2ccccc2c2ccc(Cl)c(Cl)c21 [Compound 209] | > 300 |
| CC(O)c1ccc2c(=O)c3ccc(Cl)c(Cl)c3n(CC(=O)O)c2c1 (centres unmarked) [Compound 191] | > 300 |
| CC(C)c1ccc2c(=O)c3ccc(I)c(Cl)c3n(CC(=O)O)c2c1 [Compound 195] | > 300 |
| O=C(O)CCCn1c2ccccc2c(=O)c2ccc(Cl)c(Cl)c21 [Compound 205] | > 300 |
| O=C(O)Cn1c2cc(-c3cc[nH]n3)ccc2c(=O)c2ccc(Cl)c(Cl)c21 [Compound 182] | 100 to 300 |
| O=C(O)Cn1c2cc(C(O)(C(F)(F)F)C(F)(F)F)ccc2c(=O)c2ccc(Cl)c(Cl)c21 [Compound 167] | > 300 |

The remaining lines, values ahead:

| IC50 [µM] | SMILES |
| --- | --- |
| 20 to 100 | CC(C)c1ccc2c(=O)c3ccc(Cl)c(Cl)c3n(CC(=O)NS(C)(=O)=O)c2c1 [Compound 352] |
| 20 to 100 | CCOc1c(Cl)ccc2c(=O)c3ccc(C)cc3n(CC(=O)O)c12 [Compound 282] |
| 100 to 300 | O=C(Cn1c2ccccc2c(=O)c2ccc(Cl)c(Cl)c21)NO [Compound 353] |
| 20 to 100 | COc1c(Cl)ccc2c(=O)c3ccc(C4=CCCOC4)cc3n(CC(=O)O)c12 [Compound 252] |
| 100 to 300 | O=C(O)Cn1c2ccccc2c(=O)c2ccc(Cl)c(OC3CCC3)c21 [Compound 247] |
| 20 to 100 | O=C(O)Cn1c2cc(-c3ccco3)ccc2c(=O)c2ccc(Cl)c(Cl)c21 [Compound 186] |
| 20 to 100 | CSc1ccc2c(=O)c3ccc(Cl)c(Br)c3n(CC(=O)O)c2c1 [Compound 196] |
| 20 to 100 | COc1c(Cl)ccc2c(=O)c3ccc(C4CCOCC4)cc3n(CC(=O)O)c12 [Compound 255] |
| 100 to 300 | CC(C)Oc1c(Cl)ccc2c(=O)c3ccccc3n(CC(=O)O)c12 [Compound 246] |
| < 20 | COc1c(Cl)ccc2c(=O)c3ccc(Nc4ccc(O)cc4)cc3n(CC(=O)O)c12 [Compound 236] |
| 20 to 100 | COc1c(Cl)ccc2c(=O)c3ccc(-c4ccncc4)cc3n(CC(=O)O)c12 [Compound 278] |
| 100 to 300 | O=C(O)Cn1c2cc(-c3nccs3)ccc2c(=O)c2ccc(Cl)c(Cl)c21 [Compound 187] |
| 20 to 100 | Cc1ccc2c(=O)c3ccc(Cl)c(Cl)c3n(CC(=O)O)c2c1C [Compound 134] |
| 20 to 100 | O=C(O)Cn1c2cc(C3CCC(O)CC3)ccc2c(=O)c2ccc(Cl)c(Cl)c21 (centres unmarked) [Compound 214] |
| < 20 | O=C(O)Cn1c2cc([C@H]3CC[C@H](O)CC3)ccc2c(=O)c2ccc(Cl)c(Cl)c21 [Compound 264] |
| 100 to 300 | COc1c(Cl)ccc2c(=O)c3ccc(C)cc3n(CC(=O)NS(=O)(=O)C3CC3)c12 [Compound 348] |
| 20 to 100 | CCOc1c(Cl)ccc2c(=O)c3ccc(C(C)(C)C)cc3n(CC(=O)O)c12 [Compound 224] |
| 20 to 100 | C[C@@H]1CCCN1c1ccc2c(=O)c3ccc(Cl)c(Br)c3n(CC(=O)O)c2c1 [Compound 203] |
| 100 to 300 | COc1c(Cl)ccc2c(=O)c3ccc(C)cc3n(CC(=O)NS(C)(=O)=O)c12 [Compound 347] |
| < 20 | CSc1c(Cl)ccc2c(=O)c3ccc(Nc4ccc(F)cc4)cc3n(CC(=O)O)c12 [Compound 259] |
| 20 to 100 | CN(C)c1c(Cl)ccc2c(=O)c3ccccc3n(CC(=O)O)c12 [Compound 136] |
| 20 to 100 | COc1c(Cl)ccc2c(=O)c3ccc(C(C)C)cc3n(CC(=O)O)c12 [Compound 245] |
| 20 to 100 | CC(C)c1ccc2c(c1)c1ccc(Cl)c(Cl)c1n2CC(=O)O [Compound 240] |

target: hSTING-R232 (Homo sapiens (Human), UniProt Q86WV6, H232R); experiment: STING differential scanning fluorimetry (DSF) assay, WT human STING; conditions: WT (R232) human STING aa140-379, net shift in melting temperature
Sequence (Q86WV6 140-379 H232R): as above

| SMILES | WT_DSF_hSWAT Tm Shift (° C.) |
| --- | --- |
| COc1c(Cl)ccc2c(=O)c3cc(F)c(C(C)C)cc3n(CC(=O)O)c12 [Compound 248] | B (“B” = 0-2° C.) |
| Cn1ccnc1-c1ccc2c(=O)c3ccc(Cl)c(Cl)c3n(CC(=O)O)c2c1 [Compound 188] | A (“A” < 0° C.) |
| C[C@H](C(=O)O)n1c2ccccc2c(=O)c2ccc(Cl)c(Cl)c21 [Compound 101] | A (“A” < 0° C.) |
| Cn1ccc(-c2ccc3c(=O)c4ccc(Cl)c(Cl)c4n(CC(=O)O)c3c2)n1 [Compound 184] | C (“C” = 2-7° C,) |
| COc1ccc2c(=O)c3ccccc3n(CC(=O)O)c2c1OC [Compound 265] | B (“B” = 0-2° C.) |
| CCS(=O)(=O)NC(=O)Cn1c2cc(C)ccc2c(=O)c2ccc(Cl)c(OC)c21 [Compound 349] | C (“C” = 2-7° C,) |
| C[C@@H](C(=O)O)n1c2ccccc2c(=O)c2ccc(Cl)c(Cl)c21 [Compound 100] | A (“A” < 0° C.) |
| COc1c(Cl)ccc2c(=O)c3ccc(C4CCCNC4)cc3n(CC(=O)O)c12 (centres unmarked) [Compound 227] | C (“C” = 2-7° C,) |
| COc1c(Cl)ccc2c(=O)c3ccc(S(C)(=O)=O)cc3n(CC(=O)O)c12 [Compound 249] | B (“B” = 0-2° C.) |
| O=C(O)Cn1c2cc(C(F)F)ccc2c(=O)c2ccc(Cl)c(Cl)c21 [Compound 166] | B (“B” = 0-2° C.) |
| O=C(O)Cn1c2cc(C3CCC(O)CC3)ccc2c(=O)c2ccc(Cl)c(Cl)c21 (centres unmarked) [Compound 264] | C (“C” = 2-7° C,) |
| CCCOc1c(Cl)ccc2c(=O)c3ccccc3n(CC(=O)O)c12 [Compound 284] | C (“C” = 2-7° C,) |
| O=C(O)Cn1c2cc(-c3cccnc3)ccc2c(=O)c2ccc(Cl)c(Cl)c21 [Compound 190] | C (“C” = 2-7° C,) |
| CC(C)(O)c1ccc2c(=O)c3ccc(Cl)c(Cl)c3n(CC(=O)O)c2c1 [Compound 168] | A (“A” < 0° C.) |
| O=C(O)Cn1c2ccccc2c2ccc(Cl)c(Cl)c21 [Compound 209] | A (“A” < 0° C.) |
| CC(O)c1ccc2c(=O)c3ccc(Cl)c(Cl)c3n(CC(=O)O)c2c1 (centres unmarked) [Compound 191] | B (“B” = 0-2° C.) |
| CC(C)c1ccc2c(=O)c3ccc(I)c(Cl)c3n(CC(=O)O)c2c1 [Compound 195] | C (“C” = 2-7° C,) |
| O=C(O)CCCn1c2ccccc2c(=O)c2ccc(Cl)c(Cl)c21 [Compound 205] | A (“A” < 0° C.) |
| O=C(O)Cn1c2cc(-c3cc[nH]n3)ccc2c(=O)c2ccc(Cl)c(Cl)c21 [Compound 182] | C (“C” = 2-7° C,) |
| O=C(O)Cn1c2cc(C(O)(C(F)(F)F)C(F)(F)F)ccc2c(=O)c2ccc(Cl)c(Cl)c21 [Compound 167] | A (“A” < 0° C.) |

The remaining lines, values ahead:

| WT_DSF_hSWAT Tm Shift (° C.) | SMILES |
| --- | --- |
| C (“C” = 2-7° C,) | CC(C)c1ccc2c(=O)c3ccc(Cl)c(Cl)c3n(CC(=O)NS(C)(=O)=O)c2c1 [Compound 352] |
| D (“D” > 7° C.) | CCOc1c(Cl)ccc2c(=O)c3ccc(C)cc3n(CC(=O)O)c12 [Compound 282] |
| A (“A” < 0° C.) | O=C(Cn1c2ccccc2c(=O)c2ccc(Cl)c(Cl)c21)NO [Compound 353] |
| D (“D” > 7° C.) | COc1c(Cl)ccc2c(=O)c3ccc(C4=CCCOC4)cc3n(CC(=O)O)c12 [Compound 252] |
| A (“A” < 0° C.) | O=C(O)Cn1c2ccccc2c(=O)c2ccc(Cl)c(OC3CCC3)c21 [Compound 247] |
| C (“C” = 2-7° C,) | O=C(O)Cn1c2cc(-c3ccco3)ccc2c(=O)c2ccc(Cl)c(Cl)c21 [Compound 186] |
| D (“D” > 7° C.) | CSc1ccc2c(=O)c3ccc(Cl)c(Br)c3n(CC(=O)O)c2c1 [Compound 196] |
| C (“C” = 2-7° C,) | COc1c(Cl)ccc2c(=O)c3ccc(C4CCOCC4)cc3n(CC(=O)O)c12 [Compound 255] |
| C (“C” = 2-7° C,) | CC(C)Oc1c(Cl)ccc2c(=O)c3ccccc3n(CC(=O)O)c12 [Compound 246] |
| D (“D” > 7° C.) | COc1c(Cl)ccc2c(=O)c3ccc(Nc4ccc(O)cc4)cc3n(CC(=O)O)c12 [Compound 236] |
| D (“D” > 7° C.) | COc1c(Cl)ccc2c(=O)c3ccc(-c4ccncc4)cc3n(CC(=O)O)c12 [Compound 278] |
| B (“B” = 0-2° C.) | O=C(O)Cn1c2cc(-c3nccs3)ccc2c(=O)c2ccc(Cl)c(Cl)c21 [Compound 187] |
| A (“A” < 0° C.) | Cc1ccc2c(=O)c3ccc(Cl)c(Cl)c3n(CC(=O)O)c2c1C [Compound 134] |
| D (“D” > 7° C.) | O=C(O)Cn1c2cc(C3CCC(O)CC3)ccc2c(=O)c2ccc(Cl)c(Cl)c21 (centres unmarked) [Compound 214] |
| C (“C” = 2-7° C,) | COc1c(Cl)ccc2c(=O)c3ccc(C)cc3n(CC(=O)NS(=O)(=O)C3CC3)c12 [Compound 348] |
| C (“C” = 2-7° C,) | C[C@@H]1CCCN1c1ccc2c(=O)c3ccc(Cl)c(Br)c3n(CC(=O)O)c2c1 [Compound 203] |
| C (“C” = 2-7° C,) | COc1c(Cl)ccc2c(=O)c3ccc(C)cc3n(CC(=O)NS(C)(=O)=O)c12 [Compound 347] |
| D (“D” > 7° C.) | CSc1c(Cl)ccc2c(=O)c3ccc(Nc4ccc(F)cc4)cc3n(CC(=O)O)c12 [Compound 259] |
| D (“D” > 7° C.) | CN(C)c1c(Cl)ccc2c(=O)c3ccccc3n(CC(=O)O)c12 [Compound 136] |
| D (“D” > 7° C.) | COc1c(Cl)ccc2c(=O)c3ccc(C(C)C)cc3n(CC(=O)O)c12 [Compound 245] |

— patent US11414387B2, “Oxoacridinyl acetic acid derivatives and methods of use” (Stingthera, Inc., priority 2017, dated 2022)
